The values below come from patent US4980357A, “Azolidinedione derivatives” (Pfizer Inc., priority 1990, dated 1990).

Experiment [1] concerns sorbitol accumulation in the lens. The experiment is described as follows: inhibition of sorbitol accumulation in the lens of streptozotocinized (diabetic) rats. It is filed as in vivo, rat. Conditions: oral, 0.1-10.0 mg./kg., in words. Here is the method: (§1) The activity of the compounds of the present invention, as agents for the control of chronic diabetic complications, is determined by their ability to successfully pass one or more of the following standard biological or pharmacological tests, viz., (1) measuring their ability to inhibit the enzyme activity of isolated aldose reductase; (2) measuring their ability to reduce or inhibit sorbitol accumulation in the sciatic nerve and lens of acutely streptozotocinized (i.e., diabetic) rats; (3) measuring their ability to reverse already-elevated sorbitol levels in the sciatic nerve and lens of chronic streptozotocin-induced diabetic rats; (4) measuring their ability to prevent or inhibit galactitol formation in the lens of acutely galactosemic rats, and (5) measuring their ability to delay cataract formation and reduce the severity of lens opacities in chronic galactosemic rats.
(§2) The following spiro-3-heteroazolone compounds of Examples 4A, 4B, 6 and 10A, respectively, were tested for their ability to reduce or inhibit sorbitol accumulation in the sciatic nerve and lens of streptozotocinized (i.e., diabetic) rats by the procedure essentially described in U.S. Pat. No. 3,821,383. In the present study, the amount of sorbitol accumulation in the sciatic nerve and lens of each test animal was measured 27 hours after induction of diabetes. […]

Experiment [2] relates to sorbitol accumulation in the sciatic nerve. The experiment is described as follows: inhibition of sorbitol accumulation in the sciatic nerve of streptozotocinized (diabetic) rats. The experiment is classed as in vivo, rat. To be noted: oral, 0.1-10.0 mg./kg., in words. Here is the method: as §1, §2

Regarding `C[C@@H]1C[C@]2(NC(=O)NC2=O)c2cc(Cl)cnc2O1` [Example 10A, (4'S)(2'R)-6'-chloro-2',3'-dihydro-2'-methyl-spiro-[imidazolidine-4,4'-4'H-pyrano[2,3-b]pyridine]-2,5-dione], in experiment [1], the “inhibit the formation of sorbitol levels in the lens” value is recorded as “to a significantly high degree”. The “inhibit the formation of sorbitol levels in the sciatic nerve” value in experiment [2] is given as “to a significantly high degree”.
